Reference: patent US4581460A, “Substituted 1-benzoyl-2-phenyliminoimidazolidine derivatives” (Chemie Linz Aktiengesellschaft, priority 1982, dated 1986)
Like-named read-outs stand apart in the source and are kept apart here.

What was measured:
[1] = tested on: phenyl-p-quinone-induced writhing syndrome of the mouse; experiment: Writhing test (phenyl-p-quinone-induced writhing syndrome of the mouse); format: in vivo; settings: dose protecting 50% of the animals
Method: 60 minutes after oral application of the test compounds mice were injected intraperitoneally with 0.3 ml of a 0.02% phenyl-p-quinone solution in a alcohol-water mixture (1:25 v/v). After the phenyl-p-quinone injection each mouse was observed during a span of 20 minutes.
The ED50 values (antiwrithing potency) were computed according to the method of N. R. Thompsom and C. S. Weil (Biometrics 8, 1952, 51-54, 249-263). The ED50 value refers to the dose (mg of test compound/kg of mouse) protecting 50% of the animals from pain in the writhing test.

[2] = U.S. Pat. No. 4,142,051; cited from earlier work
[3] = U.S. Pat. No. 3,988,345; U.S. Pat. No. 4,389,403; cited from earlier work
[4] = Mus musculus, oral, 60 min before i.p. phenyl-p-quinone, read-out: ED50 (antiwrithing potency)
[5] = po, writhing test, mouse, read-out: ED50 in the writhing test

Row | Structure (SMILES) | ED50 [1, 4] [mg/kg] | further results
1 | COc1ccc(C(=O)N2CCNC2=Nc2cccc(Cl)c2Cl)cc1 [1-p-methoxybenzoyl-2-(2,3-dichlorophenylimino)-imidazolidine] | 0.99 | –
2 | Cc1ccc(C(=O)N2CCNC2=Nc2c(Cl)cccc2Cl)cc1F [1-(3-fluoro-4-methylbenzoyl)-2-(2,6-dichlorophenylimino)-imidazolidine] | 0.5 | –
3 | O=C(c1ccc(Cl)cc1)N1CCNC1=Nc1ccc(Cl)cc1Cl [1-p-chlorobenzoyl-2-(2,4-dichlorophenylimino)-imidazolidine] | 3.54 | –
4 | O=C(C1CC=CCC1)N1CCNC1=Nc1c(Cl)cccc1Cl (centres unmarked) [1-(cyclohex-3-en-1-oyl)-2-(2,6-dichlorophenylimino)-imidazolidine] | – | analgesic properties (prior art) [2]: exhibit analgesic properties
5 | COc1ccc(C(=O)N2CCNC2=Nc2c(Cl)cccc2Cl)cc1 [1-p-methoxybenzoyl-2-(2,6-dichlorophenylimino)-imidazolidine] | 0.63 | –
6 | O=C(c1ccc(Cl)cc1)N1CCNC1=Nc1cccc(Cl)c1Cl [1-p-chlorobenzoyl-2-(2,3-dichlorophenylimino)-imidazolidine] | 1.26 | –
7 | N#Cc1ccc(C(=O)N2CCNC2=Nc2c(Cl)cccc2Cl)cc1 [1-p-cyanobenzoyl-2-(2,6-dichlorophenylimino)-imidazolidine] | – | ED50 [1, 5]: 0.55 mg/kg
8 | CC(C)Oc1ccc(C(=O)N2CCNC2=Nc2c(Cl)cccc2Cl)cc1 [1-p-isopropoxybenzoyl-2-(2,6-dichlorophenylimino)-imidazolidine] | 0.54 | –
9 | Cc1cccc(Cl)c1N=C1NCCN1C(=O)c1ccc(F)cc1 [1-p-fluorobenzoyl-2-(2-chloro-6-methylphenylimino)imidazolidine] | 1 | –
10 | Cc1cc(C(=O)N2CCNC2=Nc2c(Cl)cccc2Cl)ccc1[N+](=O)[O-] [1-(3-methyl-4-nitrobenzoyl)-2-(2,6-dichlorophenylimino)-imidazolidine] | 0.68 | –
11 | CCOc1ccc(C(=O)N2CCNC2=Nc2c(Cl)cccc2Cl)cc1 [1-p-ethoxybenzoyl-2-(2,6-dichlorophenylimino)-imidazolidine] | 0.98 | –
12 | COc1ccc(C(=O)N2CCNC2=Nc2c(C)cccc2Cl)cc1OC [1-(3,4-dimethoxybenzoyl)-2-(2-chloro-6-methylphenylimino)-imidazolidine] | 4.42 | –
13 | O=C(c1ccc(F)cc1)N1CCNC1=Nc1cc(Cl)ccc1Cl [1-p-fluorobenzoyl-2-(2,5-dichlorophenylimino)-imidazolidine] | 10 | –
14 | CS(=O)(=O)c1ccc(C(=O)N2CCNC2=Nc2c(Cl)cccc2Cl)cc1 [1-(p-methylsulfonylbenzoyl)-2-(2,6-dichlorophenylimino)-imidazolidine] | 0.75 | –
15 | O=C(c1ccccc1)N1CCNC1=Nc1c(Cl)cccc1Cl [benclonidine, 1-benzoyl-2-(2,6-dichlorophenylimino)-imidazolidine] | – | antihypertensive / hypotensive effect (prior art) [3]: marked antihypertensive effect
16 | CC(C)=CCN1CCC2(C)c3cc(O)ccc3CC1C2C (centres unmarked) [Pentazocin, reference compound] | – | ED50 [1, 5]: 168 mg/kg
17 | O=C(c1cccc(F)c1)N1CCNC1=Nc1cccc(Cl)c1Cl [1-m-fluorobenzoyl-2-(2,3-dichlorophenylimino)-imidazolidine] | 2.08 | –
18 | O=C(c1ccc(F)cc1)N1CCNC1=Nc1c(Cl)cccc1Cl [1-p-fluorobenzoyl-2-(2,6-dichlorophenylimino)-imidazolidine] | 0.81 | –
19 | CCCOc1ccc(C(=O)N2CCNC2=Nc2c(Cl)cccc2Cl)cc1 [1-(p-n-propoxybenzoyl)-2-(2,6-dichlorophenylimino)-imidazolidine] | 0.46 | –
20 | O=C(c1ccc([N+](=O)[O-])cc1)N1CCNC1=Nc1ccc(Cl)cc1Cl [1-p-nitrobenzoyl-2-(2,4-dichlorophenylimino)-imidazolidine] | 1.77 | –
21 | O=C(c1ccc(F)cc1)N1CCNC1=Nc1cccc(Cl)c1Cl [1-p-fluorobenzoyl-2-(2,3-dichlorophenylimino)-imidazolidine] | 1.15 | –
22 | COc1ccc(C(=O)N2CCNC2=Nc2c(Cl)cccc2Cl)cc1OC [1-(3,4-dimethoxybenzoyl)-2-(2,6-dichlorophenylimino)-imidazolidine] | 4.36 | –
23 | CS(=O)(=O)c1ccc(C(=O)N2CCNC2=Nc2cccc(Cl)c2Cl)cc1 [1-p-methylsulfonylbenzoyl-2-(2,3-dichlorophenylimino)-imidazolidine] | 1.04 | –
24 | CCCCOc1ccc(C(=O)N2CCNC2=Nc2cccc(Cl)c2Cl)cc1 [1-p-n-butoxybenzoyl-2-(2,3-dichlorophenylimino-imidazolidine] | – | ED50 (antiwrithing potency) ([1]; oral, 60 min before i.p. phenyl-p-quinone): 4.49 mg of test compound/kg of mous
25 | O=C(c1cccc(Cl)c1)N1CCNC1=Nc1c(Cl)cccc1Cl [1-m-chlorobenzoyl-2-(2,6-dichlorophenylimino)-imidazolidine] | 0.81 | –
26 | N#Cc1cccc(C(=O)N2CCNC2=Nc2c(Cl)cccc2Cl)c1 [1-m-cyanobenzoyl-2-(2,6-dichlorophenylimino)-imidazolidine] | 0.25 | –
